Results taken from patent US8778871B2 (Takeda Pharmaceutical Company Limited, priority 2004, dated 2014).
Non-standard residues stand in square brackets, D forms with d. Residues, ends and D or L forms follow the SMILES beside them. *: point of attachment. 1Nal = N[C@@H](Cc1cccc2ccccc12)C(=O)O; 2Nal = N[C@@H](Cc1ccc2ccccc2c1)C(=O)O; Fmoc = O=C(OCC1c2ccccc2-c2ccccc21)*; 4Pal = N[C@@H](Cc1ccncc1)C(=O)O; Cha = N[C@@H](CC1CCCCC1)C(=O)O

Target: T1, hOT7T175 (Homo sapiens, UniProt Q969F8, L364H)
T1 construct: expressed in transfected cells
T1 sequence (Q969F8 whole entry L364H): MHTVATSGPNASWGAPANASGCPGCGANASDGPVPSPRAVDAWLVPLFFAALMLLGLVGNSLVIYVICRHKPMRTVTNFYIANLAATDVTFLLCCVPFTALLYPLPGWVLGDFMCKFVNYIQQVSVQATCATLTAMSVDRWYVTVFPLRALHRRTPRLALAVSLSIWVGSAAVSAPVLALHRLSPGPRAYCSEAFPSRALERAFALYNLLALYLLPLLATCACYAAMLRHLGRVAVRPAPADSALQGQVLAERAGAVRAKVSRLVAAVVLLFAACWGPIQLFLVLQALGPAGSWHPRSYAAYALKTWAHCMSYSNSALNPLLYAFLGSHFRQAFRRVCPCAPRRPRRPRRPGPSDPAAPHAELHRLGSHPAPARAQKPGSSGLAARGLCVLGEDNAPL
Experiment: Intracellular Ca ion level-increasing activity using FLIPR (180 seconds; specific activity to Metastin (1-54))
Format: cell-based
Conditions: hOT7T175/CHO, relative to Metastin (1-54) = 1

| Structure (SMILES) | Specific Act. (intracellular Ca ion level-increasing activity, specific activity to Metastin (1-54)) |
| --- | --- |
| CC(C)C[C@H](NC(=O)CNC(=O)[C@H](Cc1ccccc1)NC(=O)[C@H](CO)NC(=O)[C@H](CC(N)=O)NC(=O)[C@H](Cc1c[nH]c2ccccc12)NC(=O)[C@H](CC(N)=O)NC(=O)[C@@H](N)Cc1ccc(O)cc1)C(=O)N[C@@H](CCCNC(=N)N)C(=O)N[C@@H](Cc1ccccc1)C(N)=O [Compound No. 3, reference compound] | 10 |
| CC(C)C[C@H](NC(=O)CNC(=O)[C@H](Cc1ccccc1)NC(=O)[C@H](CO)NC(=O)[C@H](CC(N)=O)NC(=O)[C@H](Cc1c[nH]c2ccccc12)NC(=O)[C@H](CC(N)=O)NC(=O)[C@@H](N)Cc1ccc(O)cc1)C(=O)N[C@@H](CCCNC(=N)N)C(=O)N[C@@H](Cc1ccncc1)C(N)=O [Compound No. 17] (H-YNWNSFGLR[4Pal]-NH2) | 5 |
| COc1ccc(C[C@H](NC(=O)[C@H](CCCNC(=N)N)NC(=O)[C@H](CC(C)C)NC(=O)CNC(=O)[C@H](Cc2ccccc2)NC(=O)[C@H](CO)NC(=O)[C@H](CC(N)=O)NC(=O)[C@H](Cc2c[nH]c3ccccc23)NC(=O)[C@H](CC(N)=O)NC(=O)[C@@H](N)Cc2ccc(O)cc2)C(N)=O)cc1 [Compound No. 18] (H-YNWNSFGLRY(Me)-NH2) | 1 |
| CC(C)C[C@H](NC(=O)CNC(=O)[C@H](Cc1ccccc1)NC(=O)[C@H](CO)NC(=O)[C@H](CC(N)=O)NC(=O)[C@H](Cc1c[nH]c2ccccc12)NC(=O)[C@H](CC(N)=O)NC(=O)[C@@H](N)Cc1ccc(O)cc1)C(=O)N[C@@H](CCCNC(=N)N)C(=O)N[C@@H](Cc1ccccc1F)C(N)=O [Compound No. 19] | 2 |
| CC(=O)N[C@@H](Cc1ccc(O)cc1)C(=O)N[C@@H](CC(N)=O)C(=O)N[C@@H](Cc1c[nH]c2ccccc12)C(=O)N[C@@H](CC(N)=O)C(=O)N[C@@H](CO)C(=O)N[C@@H](Cc1ccccc1)C(=O)NCC(=O)N[C@@H](CC(C)C)C(=O)N[C@@H](CCCNC(=N)N)C(=O)N[C@@H](Cc1ccccc1)C(N)=O [Compound No. 30] | 10 |
| CC(C)C[C@H](NC(=O)CNC(=O)[C@H](Cc1ccccc1)NC(=O)[C@H](CO)NC(=O)[C@H](CC(N)=O)NC(=O)[C@H](Cc1c[nH]c2ccccc12)NC(=O)[C@H](CC(N)=O)NC(=O)[C@H](Cc1ccc(O)cc1)NC(=O)OCC1c2ccccc2-c2ccccc21)C(=O)N[C@@H](CCCNC(=N)N)C(=O)N[C@@H](Cc1ccccc1)C(N)=O [Compound No. 31] | 2 |
| CC(C)C[C@H](NC(=O)CNC(=O)[C@H](Cc1ccccc1)NC(=O)[C@H](CO)NC(=O)[C@H](CC(N)=O)NC(=O)[C@H](Cc1c[nH]c2ccccc12)NC(=O)[C@H](CC(N)=O)NC(=O)[C@H](Cc1ccc(O)cc1)NC(=O)[C@H](CC(N)=O)NC(=O)[C@@H]1CCCN1C(=O)[C@@H](N)CC(C)C)C(=O)N[C@@H](CCCNC(=N)N)C(=O)N[C@@H](Cc1ccccc1)C(N)=O [Compound No. 32, reference compound] | 10 |
| CC(C)C[C@H](NC(=O)CNC(=O)[C@H](Cc1ccccc1)NC(=O)[C@H](CO)NC(=O)[C@H](CC(N)=O)NC(=O)[C@H](Cc1c[nH]c2ccccc12)NC(=O)OCC1c2ccccc2-c2ccccc21)C(=O)N[C@@H](CCCNC(=N)N)C(=O)N[C@@H](Cc1ccccc1)C(N)=O [Compound No. 54] (Fmoc-WNSFGLRF-NH2) | 5 |
| CC(C)C[C@H](NC(=O)CNC(=O)[C@H](Cc1ccccc1)NC(=O)[C@H](CO)NC(=O)[C@H](CC(N)=O)NC(=O)[C@H](Cc1cn(C=O)c2ccccc12)NC(=O)[C@H](CC(N)=O)NC(=O)[C@@H](N)Cc1ccc(O)cc1)C(=O)N[C@@H](CCCNC(=N)N)C(=O)N[C@@H](Cc1ccc(C#N)cc1)C(N)=O [Compound No. 78, Tyr-Asn-Trp(For)-Asn-Ser-Phe-Gly-Leu-Arg-Phe(4CN)-NH2] | 10 |
| CCCC[C@H](NC(=O)CNC(=O)[C@H](Cc1ccccc1)NC(=O)[C@H](CO)NC(=O)[C@H](CC(N)=O)NC(=O)[C@H](Cc1c[nH]c2ccccc12)NC(=O)[C@H](CC(N)=O)NC(=O)[C@@H](N)Cc1ccc(O)cc1)C(=O)N[C@@H](CCCNC(=N)N)C(=O)N[C@@H](Cc1ccccc1)C(N)=O [Compound No. 105, Tyr-Asn-Trp-Asn-Ser-Phe-Gly-Nle-Arg-Phe-NH2] | 1 |
| CC(C)C[C@H](NC(=O)CNC(=O)[C@H](Cc1ccccc1)NC(=O)[C@H](CO)NC(=O)[C@H](CC(N)=O)NC(=O)[C@H](Cc1c[nH]c2ccccc12)NC(=O)[C@H](CC(N)=O)NC(=O)[C@@H](N)Cc1ccc(O)cc1)C(=O)N[C@@H](CCCNC(=N)N)C(=O)N[C@@H](Cc1ccc2ccccc2c1)C(N)=O [Compound No. 110] (H-YNWNSFGLR[2Nal]-NH2) | 20 |
| CC(C)C[C@H](NC(=O)CNC(=O)[C@H](Cc1ccccc1)NC(=O)[C@H](CO)NC(=O)[C@H](CC(N)=O)NC(=O)[C@H](Cc1c[nH]c2ccccc12)NC(=O)[C@H](CC(N)=O)NC(=O)[C@@H](N)Cc1ccc(O)cc1)C(=O)N[C@@H](CCCNC(=N)N)C(=O)N[C@@H](Cc1c(F)c(F)c(F)c(F)c1F)C(N)=O [Compound No. 111] | 3 |
| CC(C)C[C@H](NC(=O)CNC(=O)[C@H](Cc1ccccc1)NC(=O)[C@H](CO)NC(=O)[C@H](CC(N)=O)NC(=O)[C@H](Cc1c[nH]c2ccccc12)NC(=O)[C@H](CC(N)=O)NC(=O)[C@@H](N)Cc1ccc(O)cc1)C(=O)N[C@@H](CCCNC(=N)N)C(=O)N[C@@H](CC1CCCCC1)C(N)=O [Compound No. 112] (H-YNWNSFGLR[Cha]-NH2) | 2 |
| CC(C)C[C@H](NC(=O)CNC(=O)[C@H](Cc1ccccc1)NC(=O)[C@H](CO)NC(=O)[C@H](CC(N)=O)NC(=O)[C@H](Cc1c[nH]c2ccccc12)NC(=O)[C@H](CC(N)=O)NC(=O)[C@@H](N)Cc1ccc(O)cc1)C(=O)N[C@@H](CCCNC(=N)N)C(=O)N[C@@H](Cc1ccc(Cl)cc1)C(N)=O [Compound No. 130] | 10 |
| CC(C)C[C@H](NC(=O)CNC(=O)[C@H](Cc1ccccc1)NC(=O)[C@H](CO)NC(=O)[C@H](CC(N)=O)NC(=O)[C@H](Cc1c[nH]c2ccccc12)NC(=O)[C@H](CC(N)=O)NC(=O)[C@@H](N)Cc1ccc(O)cc1)C(=O)N[C@@H](CCCNC(=N)N)C(=O)N[C@@H](Cc1ccc(N)cc1)C(N)=O [Compound No. 131] | 3 |
| CC(C)C[C@H](NC(=O)CNC(=O)[C@H](Cc1ccccc1)NC(=O)[C@H](CO)NC(=O)[C@H](CC(N)=O)NC(=O)[C@H](Cc1c[nH]c2ccccc12)NC(=O)[C@H](CC(N)=O)NC(=O)[C@@H](N)Cc1ccc(O)cc1)C(=O)N[C@@H](CCCNC(=N)N)C(=O)N[C@@H](Cc1ccc([N+](=O)[O-])cc1)C(N)=O [Compound No. 132] | 10 |
| CC(C)C[C@H](NC(=O)CNC(=O)[C@H](Cc1ccccc1)NC(=O)[C@H](CO)NC(=O)[C@H](CC(N)=O)NC(=O)[C@H](Cc1c[nH]c2ccccc12)NC(=O)[C@H](CC(N)=O)NC(=O)[C@@H](N)Cc1ccc(O)cc1)C(=O)N[C@@H](CCCNC(=N)N)C(=O)N[C@@H](Cc1cccc2ccccc12)C(N)=O [Compound No. 133] (H-YNWNSFGLR[1Nal]-NH2) | 3 |
| CNC(=N)NCCC[C@H](NC(=O)[C@H](CC(C)C)NC(=O)CNC(=O)[C@H](Cc1ccccc1)NC(=O)[C@H](CO)NC(=O)[C@H](CC(N)=O)NC(=O)[C@@H](Cc1c[nH]c2ccccc12)NC(=O)[C@H](CC(N)=O)NC(=O)[C@H](N)Cc1ccc(O)cc1)C(=O)N[C@@H](Cc1ccccc1)C(N)=O [Compound No. 142, D-Tyr-Asn-D-Trp-Asn-Ser-Phe-Gly-Leu-Arg(Me)-Phe-NH2] | 2 |
| CNC(=N)NCCC[C@H](NC(=O)[C@H](CC(C)C)NC(=O)CNC(=O)[C@H](Cc1ccccc1)NC(=O)[C@H](CO)NC(=O)[C@H](CC(N)=O)NC(=O)[C@@H](Cc1c[nH]c2ccccc12)NC(=O)[C@H](CC(N)=O)NC(=O)[C@@H](N)Cc1ccc(O)cc1)C(=O)N[C@@H](Cc1ccccc1)C(N)=O [Compound No. 143, Tyr-Asn-D-Trp-Asn-Ser-Phe-Gly-Leu-Arg(Me)-Phe-NH2] | 3 |
| CC(C)C[C@H](NC(=O)CNC(=O)[C@H](Cc1cccc2ccccc12)NC(=O)[C@H](CO)NC(=O)[C@H](CC(N)=O)NC(=O)[C@H](Cc1c[nH]c2ccccc12)NC(=O)[C@H](CC(N)=O)NC(=O)[C@@H](N)Cc1ccc(O)cc1)C(=O)N[C@@H](CCCNC(=N)N)C(=O)N[C@@H](Cc1ccccc1)C(N)=O [Compound No. 151, Tyr-Asn-Trp-Asn-Ser-Nal(1)-Gly-Leu-Arg-Phe-NH2] (H-YNWNS[1Nal]GLRF-NH2) | 1 |
| CC(C)C[C@H](NC(=O)CNC(=O)[C@H](Cc1ccc(F)cc1)NC(=O)[C@H](CO)NC(=O)[C@H](CC(N)=O)NC(=O)[C@H](Cc1c[nH]c2ccccc12)NC(=O)[C@H](CC(N)=O)NC(=O)[C@@H](N)Cc1ccc(O)cc1)C(=O)N[C@@H](CCCNC(=N)N)C(=O)N[C@@H](Cc1ccccc1)C(N)=O [Compound No. 154, Tyr-Asn-Trp-Asn-Ser-Phe(4F)-Gly-Leu-Arg-Phe-NH2] | 5 |
| CC(C)C[C@H](NC(=O)CNC[C@H](Cc1ccccc1)NC(=O)[C@H](CO)NC(=O)[C@H](CC(N)=O)NC(=O)[C@H](Cc1c[nH]c2ccccc12)NC(=O)[C@H](CC(N)=O)NC(=O)[C@@H](N)Cc1ccc(O)cc1)C(=O)N[C@@H](CCCNC(=N)N)C(=O)N[C@@H](Cc1ccccc1)C(N)=O [Compound No. 163, Tyr-Asn-Trp-Asn-Ser-PheΨ(CH2NH)Gly-Leu-Arg-Phe-NH2] | 1 |
